The values below come from US20160326142A1, “PYRAZOLE CARBOXAMIDE COMPOUNDS, COMPOSITIONS AND METHODS OF USE” (Genentech, Inc., priority 2012, published 2016).

In the experiment the target is T1, ITK (Homo sapiens, UniProt Q08881).
T1 construct: purchased Invitrogen PV3875
T1 sequence (Q08881 1-620): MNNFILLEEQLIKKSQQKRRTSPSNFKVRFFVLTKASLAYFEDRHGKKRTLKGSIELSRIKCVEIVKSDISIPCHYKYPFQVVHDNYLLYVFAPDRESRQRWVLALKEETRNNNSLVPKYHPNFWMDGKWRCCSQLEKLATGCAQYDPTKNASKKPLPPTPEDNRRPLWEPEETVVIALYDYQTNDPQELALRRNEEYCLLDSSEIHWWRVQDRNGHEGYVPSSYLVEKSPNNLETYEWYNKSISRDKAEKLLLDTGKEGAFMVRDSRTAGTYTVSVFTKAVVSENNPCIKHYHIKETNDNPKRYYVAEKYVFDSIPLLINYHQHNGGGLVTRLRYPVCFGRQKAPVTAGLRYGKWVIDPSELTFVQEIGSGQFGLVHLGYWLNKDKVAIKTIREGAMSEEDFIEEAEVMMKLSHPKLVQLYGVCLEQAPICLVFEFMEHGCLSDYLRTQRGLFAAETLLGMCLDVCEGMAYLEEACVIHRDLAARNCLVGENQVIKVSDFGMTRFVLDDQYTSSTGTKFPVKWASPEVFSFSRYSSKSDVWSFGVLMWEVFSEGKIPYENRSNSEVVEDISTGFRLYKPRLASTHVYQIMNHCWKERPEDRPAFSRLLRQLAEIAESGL
In words: ITK enzyme assay (Caliper or LCMS peptide phosphorylation). Type of experiment: biochemical. The conditions noted are these: purified ITK (Invitrogen PV3875), 20 μM ATP, Ki by Morrison's quadratic equation. The procedure, abridged: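 Purified human ITK peptide phosphorylation, quenched with EDTA (50 mM final) for Caliper LabChip separation or TCA (5% v/v final) for UPLC-MS/MS MRM quantification. Ki derived via Morrison tight-binding equation, corrected for competitive inhibition using ATP concentration relative to Km,app.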
As for `CC1(C)CCc2c(C(=O)Nc3cnn(C(c4ccccc4)C4CN(CCF)C4)c3)n[nH]c2C1` (stereo not shown) [Example 75b, N-(1-((1-(2-fluoroethyl)azetidin-3-yl)(phenyl)methyl)-1H-pyrazol-4-yl)-6,6-dimethyl-4,5,6,7-tetrahydro-1H-indazole-3-carboxamide], the Ki was determined as 0.3 nM.

`O=C(Nc1cnn(Cc2ccccc2)c1)c1n[nH]c2c1CC1(COC1)C2` [Example 82, N-(1-benzyl-1H-pyrazol-4-yl)-4,6-dihydro-1H-spiro[cyclopenta[c]pyrazole-5,3′-oxetane]-3-c arboxamide] returned a Ki of 61 nM.

Compound `CC1(C)CCc2c(C(=O)Nc3cnn(Cc4ccnc(N)c4)c3)n[nH]c2C1` [Example 111, N-(1-((2-aminopyridin-4-yl)methyl)-1H-pyrazol-4-yl)-6,6-dimethyl-4,5,6,7-tetrahydro-1H-indazole-3-carboxamide] registered a Ki of 8 nM.

Compound `CC1(C)CCc2c(C(=O)Nc3cnn(Cc4cccnc4N)c3)n[nH]c2C1` [Example 112, N-(1-((2-aminopyridin-3-yl)methyl)-1H-pyrazol-4-yl)-6,6-dimethyl-4,5,6,7-tetrahydro-1H-indazole-3-carboxamide] showed an inhibition constant Ki of 6 nM.

The compound `O=C(Nc1cnn(Cc2ccccc2)c1)c1n[nH]c2c1CCC1(CSC1)C2` [Example 118, N-(1-benzyl-1H-pyrazol-4-yl)-1,4,5,7-tetrahydrospiro[indazole-6,3′-thietane]-3-carboxamide] showed a Ki of 34 nM.

Compound `CN(CCC(c1ccccc1)n1cc(NC(=O)c2n[nH]c3c2CCC(C)(C)C3)cn1)S(C)(=O)=O` (stereo not shown) [Example 122, 6,6-dimethyl-N-(1-(3-(N-methylmethylsulfonamido)-1-phenylpropyl)-1H-pyrazol-4-yl)-4,5,6,7-tetrahydro-1H-indazole-3-carboxamide] had an inhibition constant Ki of 4 nM.

For `CN1CCC2(CCc3c(C(=O)Nc4cnn(Cc5ccccc5)c4)n[nH]c3C2)C1=O` (stereo not shown) [Example 123b, N-(1-benzyl-1H-pyrazol-4-yl)-1′-methyl-2′-oxo-1,4,5,7-tetrahydrospiro[indazole-6,3′-pyrrolidine]-3-carboxamide], the Ki is 4000 nM.

`O=C(Nc1cnn(Cc2ccccc2)c1)c1n[nH]c2c1CCCCC2` [Example 124, N-(1-benzyl-1H-pyrazol-4-yl)-1,4,5,6,7,8-hexahydrocyclohepta[c]pyrazole-3-carboxamide] registered a Ki of 140 nM.

The compound `CC1(C)CCc2c(C(=O)Nc3cnn(C(c4ccccc4)C4CS(=O)(=O)CCN4)c3)n[nH]c2C1` (stereo not shown) [Example 128a, N-(1-((1,1-dioxidothiomorpholin-3-yl)(phenyl)methyl)-1H-pyrazol-4-yl)-6,6-dimethyl-4,5,6,7-tetrahydro-1H-indazole-3-carboxamide] showed an inhibitory constant (Ki) of 42 nM.

In the case of `CC12Cc3[nH]nc(C(=O)Nc4cnn(C(c5ccccc5)C5CCS(=O)(=O)CC5)c4)c3CC1C2(F)F` (stereo not shown) [Example 141, N-(1-((1,1-dioxidotetrahydro-2H-thiopyran-4-yl)(phenyl)methyl)-1H-pyrazol-4-yl)-5,5-difluoro-5a-methyl-1,4,4a,5,5a,6-hexahydrocyclopropa[f]indazole-3-carboxamide], the Ki was less than 0.1 nM.

A word on the Ki: it is a dissociation constant, usually derived from enzyme kinetics or from competition with a known ligand. Read a high Ki as a looser hold on the target.
